Measured values taken from patent publication US20220348590A1, “CYCLOOXYGENASE-2 INHIBITORS AND USES THEREOF” (The Board Institute, Inc., priority 2019, published 2022).
Converted amounts (≈) assume the structure as drawn. Like-named read-outs stand apart in the source and are kept apart here.

Assays:
[1] = mouse plasma protein binding (PPB) assay; format: in vitro ADME; details: average, read-out: Mouse Plasma Protein Binding % Bound Avg (converted)
Procedure, shortened: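 In vitro protein binding; fu determined. Matrices: mouse/rat/human plasma (PPB), mouse brain (BPB). Used to gauge NSB.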

[2] = mouse brain protein binding (BPB) assay; format: in vitro ADME
Protocol: We have adapted a previously reported cyclooxygenase enzymatic assay utilizing LCMS quantification of PGE2 as the product of COX-1 and COX2 catalyzed conversion of arachidonic acid to evaluate the binding properties of newly synthesized ligands [Cao, 2011]. These optimized and miniaturized (384-well plates) LCMS-based COX-1 and COX2 enzymatic assays enabled us to quickly evaluate newly synthesized ligands for COX2 binding affinity and selectivity vs COX-1. Using a shorter ligand-enzyme incubation time in the LCMS assay (2 minutes vs 10 minutes) also permitted us to prioritize ligands with faster binding kinetics. Considering the relatively slow on-rate kinetics of known coxibs, due to their 3-step binding mechanism [Marnett, 2009], we believe that optimizing this critical parameter will be key to the successful development of a COX2 PET tracer. Using these enzymatic assays, we have evaluated>200 newly synthesized ligands against COX2 and >20 ligands against COX-1. Another critical property necessary for a good PET radiotracer is to have low non-specific binding (NSB) to increase the free fraction and maximize the signal to noise ratio. This property can be evaluated using in-vitro protein binding assays, and we have now evaluated>50 newly synthesized ligands in mouse, rat and human plasma protein binding (PPB) assays as well as >15 ligands in a mouse brain protein binding (BPB) assay.

PBS Solubility (no DMSO) = format: physicochemical; details: aqueous buffer, thermodynamic from solid, average
[3] = Rat Plasma Protein Stability (% Remaining); format: in vitro ADME; details: average
Rat Microsome Stability = format: in vitro ADME; details: rat microsomes
MDR1 = assay: MDR1-MDCKII permeability and efflux; format: in vitro ADME; details: dog, MDCK-MDR1
[4] = target: T1, human recombinant COX2 (hCOX2) (UniProt P35354); assay: LCMS-based COX2 enzymatic inhibition assay (PGE2 quantification); format: biochemical; design: COX2 2 minutes pge2/pge2d4 area ratio Avg; other: 2 minutes; readout pge2/pge2d4 area ratio; average; COX2 2 minutes pge2/pge2d4 area ratio Avg; LLE; average LLE; COX2 2 minutes pge2 area (counts) Avg; readout pge2 area (counts); other: 2 min; "ovine COX2 (oCOX2), human recombinant COX2 (hCOX2)"; details: 2 minutes; for IC50: average
T1 sequence (P35354 1-604): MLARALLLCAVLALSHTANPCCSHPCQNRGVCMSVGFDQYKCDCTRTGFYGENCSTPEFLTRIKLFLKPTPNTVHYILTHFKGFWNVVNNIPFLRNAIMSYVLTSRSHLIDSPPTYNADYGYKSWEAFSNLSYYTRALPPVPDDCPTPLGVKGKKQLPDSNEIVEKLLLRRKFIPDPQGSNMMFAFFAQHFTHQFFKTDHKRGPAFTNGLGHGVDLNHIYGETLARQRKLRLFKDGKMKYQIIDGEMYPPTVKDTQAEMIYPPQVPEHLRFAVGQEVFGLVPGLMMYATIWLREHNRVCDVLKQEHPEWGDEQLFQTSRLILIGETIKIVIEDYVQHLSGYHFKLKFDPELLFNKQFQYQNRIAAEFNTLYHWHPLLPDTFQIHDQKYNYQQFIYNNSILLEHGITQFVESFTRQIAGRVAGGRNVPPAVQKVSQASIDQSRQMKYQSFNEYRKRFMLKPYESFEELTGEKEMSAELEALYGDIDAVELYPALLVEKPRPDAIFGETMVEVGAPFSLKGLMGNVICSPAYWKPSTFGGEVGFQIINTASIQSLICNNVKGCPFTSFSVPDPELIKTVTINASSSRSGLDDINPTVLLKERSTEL
Procedure, shortened: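 PGE2 formed from arachidonic acid (final 5 μM, 2 min) was measured by LC-MS-MS against DMSO controls. Enzyme (oCOX-1 0.1 μg or hCOX2 0.2 μg) with hematin/epinephrine cofactors at pH 8.0 was given 10 min at 37 °C with compound first. Twelve-point curves run three times gave IC50.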

fraction unbound [1]: 0.07 | fraction unbound [2]: 0.022 | solubility (PBS Solubility (no DMSO)): 88 µM (≈ 28.9 µg/mL) | Rat Plasma Protein Stability % Remaining Avg [3]: 105.1% | Rat Microsome Stability % Remaining Avg (Rat Microsome Stability): 8.2% | efflux ratio (MDR1): 0.9 | Papp A→B (MDR1; A-B, read-out: MDR1-MCKII Papp A-B): 50.8 ×10⁻⁶ cm/s | Papp B→A (MDR1; B-A, read-out: MDR1-MCKII Papp B-A): 47.2 ×10⁻⁶ cm/s | COX2 2 minutes pge2/pge2d4 area ratio Avg. LLE ([4]; readout pge2/pge2d4 area ratio, average LLE): 4.86 | IC50 ([4]; readout pge2/pge2d4 area ratio, read-out: COX2 2 minutes pge2/pge2d4 area ratio Avg. IC50): 21.2 nM | COX2 2 minutes pge2 area (counts) Avg. LLE ([4]; readout pge2 area (counts), average LLE): 4.974 | IC50 ([4]; readout pge2 area (counts), read-out: COX2 2 minutes pge2 area (counts) Avg. IC50): 15.5 nM
SMILES: CS(=O)(=O)c1ccc(-c2cccc(NCc3ccoc3)n2)cc1 [Compound 47, N-(furan-3-ylmethyl)-6-(4-(methylsulfonyl)phenyl)pyridin-2-amine]
